Results taken from patent publication US20250263437A1, “POLYPEPTIDE FOR REPAIRING SKIN WOUND OR MUCOSAL INJURY, AND APPLICATION THEREOF” (Sichuan Gooddoctor Panxi Pharmaceutical Co., Ltd., priority 2021, published 2025).
“Also recorded” adds a separate entry of the source. Where no end group is shown, it is not given here.

How the values were obtained:
[1] = test system: ethanol-induced gastric ulcer model in mice; experiment: Anti-ulcer effect on ethanol-induced gastric ulcer model in mice; assay type: in vivo; details: single administration; ulcer inhibition rate of test compound / ulcer inhibition rate of Compound 1
Description: Experimental animals: Six-week old C57BL/6JGPt male mice, weighing about 20 g/mouse, were selected, with 10 mice in each group, from GemPharmatech (Chengdu) Co., Ltd., animal license number: SCXK (Chuan) 2020-034. After the experimental animals were divided into groups, they were dosed according to Table 5 one day before the experiment. Among the groups, the model group was given 200 μl of pure water, and the other dose groups were given 200 μl of drug solution. After that, all the animals were fasted for 24 h with free access to water. The next day, 1 h after administration, the mice in each group were given 9 μl/g of absolute ethanol by oral gavage for modeling. After 1 h, the animals were sacrificed by cervical dislocation, the gastric cardia was ligated, the pylorus was occluded, and the whole stomach was removed. 1 mL of 1% formaldehyde solution was injected into the gastric lumen via the glandular stomach, the cardia was ligated, and the stomach was taken out and immediately immersed in 1% formaldehyde solution. After soaking for 30 min, the stomach tissue was taken out and cut open along the greater curvature. The content of the stomach was rinsed off with normal saline, the injury of the gastric mucosa in the mice were observed and measured after being laid flat, and the ulcer index and ulcer inhibition rate were calculated; panoramic photos of the stomach were taken; and finally, the gastric tissue sample was immersed in formalin and fixed. Calculation method for ulcer index: If the length of cord-like injury was greater than 1 mm, the length thereof was measured, with 1 point per millimeter; if the width thereof was greater than 1 mm, the score thereof was doubled according to the number of millimeters of the width; and if the length was less than 1 mm, a score of 0.5 was given, and the scores were added up to obtain the ulcer index of the animal. Method of data statistics: the ulcer index was expressed as mean±standard deviation; the ulcer inhibition rate was calculated by using the median value and mean value of the ulcer index in each dosage group and simulation group; and the data were statistically analyzed by means of Excel, and the difference data of the gastric ulcer index were statistically analyzed by means of independent sample T test.

RSC96 cells = experiment: Proliferation of RSC96 cells (CCK-8); assay type: cell-based; details: 0.2, 0.4 and 0.8 ug/ml; 48 h; 0% serum
Description: Glial cells (RSC96 cells) were adjusted to a concentration of 1.0×10^5 to 5.0×10^5/mL for passaging and cultured at 37° C. and 5% CO2 for 24-36 h for biological activity detection. The cells were digested by trypsin, collected, prepared to a concentration of 5×10^4/mL with a serum-free medium, inoculated into a 96-well cell culture plate, with 100 μL per well, i.e., 5000 cells/well, and cultured overnight at 37° C. and 5% CO2. The polypeptide compound of the present invention was prepared to test concentrations (0.2 ug/ml, 0.4 ug/ml, and 0.8 ug/ml) with 0% serum culture medium as experimental groups, and an equal amount of 0% serum drug-free culture medium was added to the control group. They were added to 4 duplicate wells, and the resultants were incubated at 37° C. and 5% CO2 for 48 h. Detection of the proliferation of cells using CCK-8: the old culture medium was removed, and a serum-free medium containing 10% CCK-8 was added to each well. After incubation in an incubator for 2 h, the absorbance at 450 nm was measured by a microplate reader.

[2] = test system: chronic atrophic gastritis model in mice; experiment: Therapeutic effect on chronic atrophic gastritis model in mice (MNNG combined with ranitidine); assay type: in vivo; details: 5 mg/kg daily by gavage, 2 weeks
Description: Method: Chronic atrophic gastritis was induced by MNNG (N-methyl-N-nitro-N-nitrosoguanidine) combined with ranitidine. The mice were free to access to an aqueous solution containing MNNG ([…]), and at the same time, the mice were given ranitidine (8 mg/ml) aqueous solution at a dose of 150 mg/kg by gavage at a fixed time per day for 20 consecutive weeks. After 20 weeks of modeling, on the basis of drinking ordinary distilled water, the mice were given Compound 1 (5 mg/kg) daily by gavage.

HMEC-1 cells = experiment: Proliferation of HMEC-1 cells (CCK-8); assay type: cell-based, Human; details: 0.05, 0.2 and 0.8 ug/mL; 48 h; 0% serum
Description: Human microvascular endothelial cells (HMEC-1 cells) were cultured in 10% serum culture medium at 37° C. and 5% CO2, the medium was replaced every 1-2 d, and the cell concentration was controlled to be 4×10^6 cells/mL for passage. Cells were collected, prepared to […] with complete culture medium, inoculated into a 96-well cell culture plate, with 100 μL per well, i.e., 5000 cells/well, and cultured at 37° C. and 5% CO2 until the cells adhered to the wall. The polypeptide compound of the present invention was prepared to test concentrations (0.05 ug/mL, 0.2 ug/mL, and 0.8 ug/mL) with 0% serum culture medium as experimental groups, a positive drug (300 ng/ml) was prepared in the same way and added as a positive control, and an equal amount of 0% serum drug-free culture medium was added to the control group. They were added to 5 duplicate wells, and the resultants were incubated at 37° C. and 5% CO2 for 48 h. Detection of the proliferation of cells using CCK-8: the old culture medium was removed, and a serum-free medium containing 10% CCK-8 was added to each well. After incubation in an incubator for 2 h, the absorbance at 450 nm was measured by a microplate reader.

Sequence	Anti-ulcer activity (mean relative ulcer inhibition rate) [1]	effect on proliferation of RSC96 cells (RSC96 cells)	repair / therapeutic effect on chronic atrophic gastritis [2]	height of the mucosa in the gastric antrum ([2]; compared with the model group)	number of parietal cells ([2]; compared with the model group)	structure of the gastric gland ([2]; compared with the model group)	effect on proliferation of HMEC-1 cells (HMEC-1 cells)
AAVLDKLE [Compound 68]	0.85	significant proliferation promoting effects					
SMQASLEAEAKGKAE [Compound 1]	1.00	significant proliferation promoting effects; also recorded: proliferation-promoting effect	could promote the repair of chronic atrophic gastritis in mice; also recorded: therapeutic effect	substantially recovered to the normal state	increased significantly	recovered to normal	significant proliferation promoting effects; also recorded: proliferation-promoting effect
VDAAVLEKLE [Compound 67]	0.24	proliferation-promoting effect					
